The structures appear in SMILES notation.

Take `CCOC(=O)N1CC[C@H](Oc2cccc(F)c2)[C@H](c2ccccc2)C1` (relative stereo): the melting point (in general, the temperature, or range, at which the solid turns liquid) lay in the range of 74 to 76.5 °C.

As for `Cn1nc(C(F)(F)F)cc1Oc1cc(OC(F)F)cnn1`, the melting point was in the range of 86 to 88 °C. With `CC(=O)N1CCc2ccc(SCc3ccccc3)c([N+](=O)[O-])c2C1` the figure was 94 to 95 °C; with `CCCCc1nc2c(N)nc3cccnc3c2n1CCCOC(C)C`, 174 to 175 °C; with `OCc1cc(-c2ccc(Cl)cc2)nc2ccnn12`, 185 to 186 °C. With `Cc1ccc(Nc2nc(Cl)nc(Cl)n2)cc1F` the figure was 130 °C. With `COC(=O)c1ccc2c(c1)C(SCCI)c1ccccc1CO2` (stereo unspecified) the figure was 111 to 113 °C; with `COC(OC)c1cnc(C)nc1N`, 102 to 104 °C; with `CN1CC(c2ccc(Nc3cc(-c4cccc(N5Cc6cc(C(C)(C)C)ccc6C5=O)c4CO)cn(C)c3=O)nc2)C1`, 201 to 202 °C. As to `Cn1c(=O)nc(-c2ccccc2)c2c3c(sc21)CCCC3`, the melting point lay within 215 to 216 °C. In the case of `NC(=O)CNC(=O)c1ccc(F)c(-c2ccc(F)c3cc(Cc4cc(F)cc(Cl)c4)sc23)c1` it was 178 to 179 °C; in that of `CCOC(=O)Cn1[nH]c(C)c(Cc2cc(Cl)cc(Cl)c2)c1=O`, 183 to 184 °C; in that of `CC(C)(OCc1nn(C(c2ccccc2)(c2ccccc2)c2ccccc2)c2ccccc12)C(=O)O`, 179 to 180 °C.

Regarding `CCC1(c2cccc(O)c2)CCCCN(C)C1` (stereo unspecified), the melting point is 128 to 133 °C. In the case of `C[C@H]1C(=O)OCN1C(=O)OC(C)(C)C` it was 64 to 67 °C; in that of `CO[Si](OC)(OC)c1ccc(C#Cc2ccc(C#Cc3ccc([Si](OC)(OC)OC)cc3)cc2)cc1`, 164 to 166 °C; in that of `FC(F)(F)c1ccc(-c2cc(Oc3cccc4ccc(Cl)nc34)ncn2)cc1`, 172 to 173 °C. In the case of `CCOC(=O)CC(C#N)(CC(=O)OCC)c1ccc(F)cc1` it was 68 to 70 °C; in that of `OC1CCN(C(c2ccccc2)(c2ccccc2)c2ccccc2)CC1`, 157 to 158 °C. In the case of `Cc1ccc(-c2ccc(OC3SCC(O)C(O)C3O)cn2)cc1` (stereo unspecified) it was 191 °C; in that of `CC(=O)CC(C)(C)Cn1c(C)nc2c(N)nc3ccccc3c21`, 223 to 225 °C. In the case of `CCCSc1ncc(CC(N=C(c2ccccc2)c2ccccc2)C(=O)OCC)n1Cc1ccccc1Cl` (stereo unspecified), the melting point is 178 to 181 °C. The compound `CCCCNC(=O)N(C)c1cccc(-c2ccc(C=C(OC)C(=O)O)cc2)c1` came in with a melting point of 146 °C.

In turn, `CCOC(=O)Cn1c(=O)c(=O)[nH]c2cc(C(F)(F)F)c(-n3c(C)ccc3C)cc21` showed a melting point of 262 to 263 °C. In the case of `CC(C)(C)OC(=O)N1CCN(CCc2ccc(Nc3ncc4c(n3)-c3ccccc3C(c3ccccc3C(F)(F)F)C4)cc2)CC1` (stereo unspecified) it was 234 to 235 °C; in that of `CC(C)NC(=O)c1c(NC(=O)c2cc(C(F)(F)F)nn2-c2ncccc2Cl)ccc2cccnc12`, 225 to 226 °C; in that of `NC(=O)CCN1C(=O)C(=O)c2cc(F)ccc21`, 142 to 145 °C.

`Cc1c(Cl)cccc1Nc1ncccc1C(=O)OC1OC(=O)c2ccccc21` (stereo unspecified) showed a melting point of 178 to 180 °C. With `CC(=O)C1CCC2C3CCC4CC(O)C(N5CCSC(C)(C)C5)CC4(C)C3C(=O)CC12C` (stereo unspecified) the figure was 202 to 203 °C; with `C[C@@H](Oc1ccc(-c2ccccc2)cc1)[C@H](O)CCc1cccnc1`, 98 to 99.5 °C. With `COC(=O)c1ccc2c(c1)COC(C(Cl)(Cl)Cl)N2` (stereo unspecified) the figure was 116 to 117 °C; with `COc1cc(O)cc(-c2cc3ccc(O)cc3o2)c1CC=C(C)C`, 93 to 94 °C; with `Nc1nc(Cl)cc(NCC2(CO)CC(=O)C2)n1`, 171 to 173 °C. Compound `CNC(=O)c1cccc(NC(=O)COc2ccccc2OC)c1` gave a melting point of 133 °C. In the case of `c1ccc(COc2ccc([C@H]3CC[C@@H](NCCOc4ccccc4)CC3)cc2)cc1` it was 95 to 98 °C; in that of `COc1ccc(C(O)CCSc2ccc(S(N)(=O)=O)s2)cc1` (stereo unspecified), 111 to 112 °C.

With `CC(=O)OCC(C)(C)C(OC(C)=O)C(Oc1ccc(Cl)cc1)n1cncn1` (stereo unspecified), the melting point lay in the range of 84 to 87 °C. `O=C1Nc2cc(Cl)ccc2C(=O)C1c1ccccn1` (stereo unspecified) displayed a melting point of more than 330 °C. In the case of `CCOC(=O)c1c(O)c2cc(F)ccc2n(C)c1=O` it was 131 °C; in that of `CC(C)(C)c1nnc(NN)s1`, 111 to 112 °C. In the case of `Cc1cccc(C(=O)Nc2c[nH]nc2C(=O)NCCCOC(C)C)n1` it was 169 to 170 °C; in that of `COc1cccc(CNC(=O)c2nc3ccc(SC)cc3c(=O)[nH]2)c1`, 168 to 170 °C. For the compound `CCOC(=O)c1nc(Cl)nc(N)c1OC`, the melting point fell in the range of 118 to 119 °C.

`Cc1ccc2ncccc2c1C(=O)NCC1CCCCC1` registered a melting point of 165 °C. With `CON=Cc1nc2c(N)nc3cc(Br)ccc3c2s1` the figure was 262 to 264 °C; with `O=C(c1c(F)cccc1F)N1COCN(c2ccc(SC(F)(F)C(F)(F)F)cc2F)C1=O`, 47 to 50 °C. In the case of `CCC1(CO)COC2(CC(c3ccc(Cl)cc3)SC(c3ccc(Cl)cc3)C2)OC1` (stereo unspecified) it was 138 °C. With `COC(=O)COc1nsc2nc(C)cc(C)c12` the figure was 89 to 91 °C; with `Cc1ccc(S(=O)(=O)NC2(S(=O)(=O)n3ccc(/C=C/C(=O)NO)c3)C=CC(c3ccccc3)=CC2)cc1` (stereo unspecified), 119 to 126 °C. Take `Cc1cc(SC(C)C)c(NC(=O)CCCCCCSc2nc3cccc(C(F)(F)F)c3o2)c(SC(C)C)n1`: the melting point fell in the range of 76 to 78 °C. In turn, `CC(C)Nc1nc2c(Cl)c(Cl)c(Cl)cc2n1[C@H]1O[C@@H](CO)[C@H](O)[C@@H]1O` gave a melting point of 223 to 224 °C. In the case of `COc1nc(C)c(C(C)=O)cc1NC(=O)N1CCN(c2cc(C)cc(C)c2)CC1` it was 66 to 69 °C; in that of `CCCCCCCCOc1ccc(C(=O)Oc2ccc(C(=O)O)c(F)c2)cc1`, 147 to 148 °C. With `CNC(CC(C)C)c1nc(-c2ccc3c(c2)Nc2ccccc2S3)cs1` (stereo unspecified) the figure was 146 to 148 °C; with `CCOC(=O)c1cnn(C)c1NC(=O)Nc1ccccc1`, 151 to 153 °C.

As for `CC(C)(C)C(=O)Oc1ccc(OC(=O)C(C)(C)C)c(C(=O)O)c1`, the melting point lay within 159 to 162 °C. In the case of `CCCOc1cc(C)c2cc(Cn3ccnc3)ccc2n1` it was 138 °C; in that of `CCC(=C(c1ccccc1)c1ccc(N(CCN(CC)CC)S(C)(=O)=O)cc1)c1ccc(OC)cc1`, 120 to 130 °C. In the case of `COc1ccc2ccc(C(=O)CNC(=O)Cc3ccccc3)cc2c1` it was 148 to 150 °C. With `N#Cc1cc2c(-c3ccncc3)nccc2[nH]c1=O` the figure was more than 300 °C. `CC(Nc1nc2ccc(Cl)cc2cc1C(=O)O)C(=O)O` (stereo unspecified): the melting point was in the range of 178 to 190 °C. As to `COc1cc(OC)c(-c2cccn2C)cc1C=CC(=O)c1ccc(S(=O)(=O)Nc2cc(C)on2)cc1`, the melting point was in the range of 113 to 115 °C. `COCC1CN(c2ccc(C3CCC(CCNC(C)=O)CC3)cc2)C(=O)O1` (racemic): the melting point is 120 to 122 °C. With `CS(=O)(=O)Nc1cc(C(O)CNC2CCN(c3ccc(C=C4SC(=O)NC4=O)cc3Br)CC2)ccc1O` (stereo unspecified) the figure was more than 200 °C. The compound `N#Cc1ccc(-n2c(N)nc3ccccc32)cc1-c1ccoc1` returned a melting point of 140 to 144 °C.

`Nc1ncnc2c1c(-c1cccc(F)c1)nn2Cc1oc2ccccc2c(=O)c1-c1ccccc1` returned a melting point of 244 to 247 °C. In the case of `CC(C)CNS(=O)(=O)c1cccc(NC(=O)c2cnn3c(C(F)F)cc(-c4ccc(C(F)(F)F)cc4)nc23)c1` it was 186 °C; in that of `CCOC(=O)[C@H](Cc1ccc(-c2c(C(F)(F)F)cc(C)n(C)c2=O)cc1)NC(=O)c1c(Cl)cccc1Cl`, 86 to 91 °C; in that of `CSCC(=O)[C@H](Cc1ccccc1)NC(=O)[C@H](CC(C)C)NC(=O)CCc1ccccc1`, 104 to 107 °C. `COc1cc(Cc2nnc(N[C@H]3CC[C@H](C(C)C)CC3)c3ccccc23)ccn1` came in with a melting point of 65 to 66 °C. With `C#CC(C)(C)OC(=O)N1CCNCC1` the figure was 35 to 38 °C; with `CC(=NNc1ccc(C2=NNC(=O)CC2C)cc1)c1cnsn1` (stereo unspecified), 241 to 245 °C. `CCCCCCCCC(Oc1ccc(C(=O)CCCCCCC)cc1)C(=O)O` (racemic) showed a melting point of 45 to 47 °C. With `Cc1cc(Br)c(Cl)cc1Cl` the figure was 82.5 to 84 °C; with `CC(=O)Nc1nc(CCc2ccc(NC(=N)N)cc2)c(C(=O)N2CCN(C(C)=O)CC2)s1`, 206 to 208 °C; with `O=C(Nc1ccccc1Cl)Nc1nc(=O)n(CC2CC2)cc1F`, 197 to 199 °C. In turn, `COCN1C(C)=C(C(=O)O)C(c2cccc(Cl)c2Cl)C(C(=O)OCOC(=O)C(C)(C)C)=C1C` (single isomer, unassigned; (+)) showed a melting point of 89 to 90 °C. With `CCCc1nc(/C=C/c2ccccc2)c(C(=O)OCC)n1Cc1cc2c(cc1Cl)OCO2`, the melting point turned out to be 161 °C. As for `O=C(NCc1ccccc1-c1ccccc1C(=O)NCCc1ccccn1)OCc1ccccc1`, the melting point turned out to be 140 °C. With `COC(=O)c1ccc2c(c1)C(=O)C(C=C1C=CC=C(C(=O)O)C1)O2` (stereo unspecified) the figure was 280 °C. In the case of `COc1cc2c(=O)c(C#N)c[nH]c2cc1NC(C)=O` it was 305 to 310 °C; in that of `OCc1ccc2ccccc2c1OCc1ccccc1`, 85 to 87 °C; in that of `Cc1oc(-c2ccccc2)nc1Cc1cc2cc(Br)ccc2o1`, 98 to 100 °C. Regarding `CN(C)C=C1C(=O)N(c2cccc(F)c2)c2ccccc21`, the melting point lay within 87 to 88.5 °C.

In turn, `O=S(Cc1ccc(Cl)cc1)C1CCC(C=CC=Cc2ccc(C(F)(F)F)cc2)CC1` (stereo unspecified) gave a melting point of 212 to 214 °C.

Consider `O=C(CS(=O)c1ccccc1)Nc1c([N+](=O)[O-])cnn1-c1c(Cl)cc(C(F)(F)F)cc1Cl` (stereo unspecified), for which the melting point lay in the range of 108 to 110 °C.

For the origin of these results see a melting point compilation (Tetko et al.; mined from patent text by program, amines drawn as free bases though some values may be those of a salt).
